# Test results published in patent US20230085307A1, “PYRIDAZINONE COMPOUND AND HERBICIDE” (NISSAN CHEMICAL CORPORATION, priority 2019, published 2023).
# How the values were obtained:
# late watergrass = assay: Test Example 1: herbicidal activity, application before weed generation under submerged conditions (Table 16, symbol A); format: in vivo, late watergrass (Echinochloa oryzicola); settings: amount of applied herbicide 320 g/ha
# Summary of the method: (§1)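 Alluvial soil was flooded to 4 cm depth, weed seeds were sown mixed and 2.5-leaf rice seedlings were transplanted. On sowing day, the compound's emulsion, diluted in water to a set dose, was applied to the water surface. Plants grew at 25–30 °C and were scored 0–5 after three weeks.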
# Japanese bulrush = assay: Test Example 1: herbicidal activity, application before weed generation under submerged conditions (Table 16, symbol B); format: in vivo, Japanese bulrush (Schoenoplectus juncoides); settings: amount of applied herbicide 320 g/ha
# Summary of the method: as §1
# oval-leafed pondweed = assay: Test Example 1: herbicidal activity, application before weed generation under submerged conditions (Table 16, symbol C); format: in vivo, oval-leafed pondweed (Monochoria vaginalis); settings: amount of applied herbicide 320 g/ha
# Summary of the method: as §1
# barnyard grass [1] = assay: Test Example 3: herbicidal effect by foliage application, Wagner pot (Table 18, symbol H); format: in vivo, barnyard grass (Echinochloa crus-galli); settings: 320 g/ha
# Summary of the method: (§2)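 Plants were sown in alluvial soil held under 0.1–0.5 cm standing water and grown 14 days in a greenhouse at 25–30 °C. An emulsifiable formulation, water-diluted to the set dose, was then sprayed onto the foliage, and effects were scored three weeks later using previously defined criteria.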
# Chinese sprangletop = assay: Test Example 3: herbicidal effect by foliage application, Wagner pot (Table 18, symbol D); format: in vivo, chinese sprangletop (Leptochloa chinensis); settings: 320 g/ha
# Summary of the method: as §2
# rice flat sedge = assay: Test Example 3: herbicidal effect by foliage application, Wagner pot (Table 18, symbol E); format: in vivo, rice flat sedge (Cyperus iria); settings: 320 g/ha
# Summary of the method: as §2
# southern crabgrass [2] = assay: Test Example 4: herbicidal effect by soil treatment (Table 19, symbol F); format: in vivo, southern crabgrass (Digitaria ciliaris); settings: amount of applied herbicide 320 g/ha
# Summary of the method: (§3)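 Herbicidal effect was rated 3 weeks after treatment, using the scoring criteria of an earlier test. The compound, formulated as an emulsion and diluted in water to a set herbicide amount, had been sprayed uniformly on soil over freshly sown seeds. Growth took place in a greenhouse at 25° C. to 30° C.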
# green foxtail [3] = assay: Test Example 4: herbicidal effect by soil treatment (Table 19, symbol G); format: in vivo, green foxtail (Setaria viridis); settings: amount of applied herbicide 320 g/ha
# Summary of the method: as §3
# barnyard grass [4] = assay: Test Example 4: herbicidal effect by soil treatment (Table 19, symbol H); format: in vivo, barnyard grass (Echinochloa crus-galli); settings: amount of applied herbicide 320 g/ha
# Summary of the method: as §3
# wild oat [5] = assay: Test Example 4: herbicidal effect by soil treatment (Table 19, symbol I); format: in vivo, wild oat (Avena fatua); settings: amount of applied herbicide 320 g/ha
# Summary of the method: as §3
# blackgrass [6] = assay: Test Example 4: herbicidal effect by soil treatment (Table 19, symbol J); format: in vivo, blackgrass (Alopecurus myosuroides); settings: amount of applied herbicide 320 g/ha
# Summary of the method: as §3
# Italian ryegrass [7] = assay: Test Example 4: herbicidal effect by soil treatment (Table 19, symbol K); format: in vivo, Italian ryegrass (Lolium multiflorum); settings: amount of applied herbicide 320 g/ha
# Summary of the method: as §3
# windgrass [8] = assay: Test Example 4: herbicidal effect by soil treatment (Table 19, symbol L); format: in vivo, windgrass (Apera spica-venti); settings: amount of applied herbicide 320 g/ha
# Summary of the method: as §3
# velvetleaf [9] = assay: Test Example 4: herbicidal effect by soil treatment (Table 19, symbol M); format: in vivo, velvetleaf (Abutilon theophrasti); settings: amount of applied herbicide 320 g/ha
# Summary of the method: as §3
# redroot pigweed [10] = assay: Test Example 4: herbicidal effect by soil treatment (Table 19, symbol N); format: in vivo, redroot pigweed (Amaranthus retroflexus); settings: amount of applied herbicide 320 g/ha
# Summary of the method: as §3
# lambsquarters [11] = assay: Test Example 4: herbicidal effect by soil treatment (Table 19, symbol O); format: in vivo, lambsquarters (Chenopodium album); settings: amount of applied herbicide 320 g/ha
# Summary of the method: as §3
# chickweed [12] = assay: Test Example 4: herbicidal effect by soil treatment (Table 19, symbol P); format: in vivo, common chickweed (Stellaria media); settings: amount of applied herbicide 320 g/ha
# Summary of the method: as §3
# false cleavers = assay: Test Example 4: herbicidal effect by soil treatment (Table 19, symbol Q); format: in vivo, false cleavers (Galium spurium); settings: amount of applied herbicide 320 g/ha
# Summary of the method: as §3
# persian speedwell [13] = assay: Test Example 4: herbicidal effect by soil treatment (Table 19, symbol R); format: in vivo, Persian speedwell (Veronica persica); settings: amount of applied herbicide 320 g/ha
# Summary of the method: as §3
# southern crabgrass [14] = assay: Test Example 5: herbicidal effect by foliage application, plastic box (Table 20, symbol F); format: in vivo, southern crabgrass (Digitaria ciliaris); settings: amount of applied herbicide 320 g/ha; foliage application after 14-day growth; evaluated three weeks after application
# Summary of the method: (§4)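 Foliar spray test: emulsion formulation diluted in water to a set application rate, sprayed onto 14-day-old plants raised in diluvial soil at 25° C to 30° C under glass. Both herbicidal effect and crop effect rated visually three weeks later.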
# green foxtail [15] = assay: Test Example 5: herbicidal effect by foliage application, plastic box (Table 20, symbol G); format: in vivo, green foxtail (Setaria viridis); settings: amount of applied herbicide 320 g/ha; foliage application after 14-day growth; evaluated three weeks after application
# Summary of the method: as §4
# barnyard grass [16] = assay: Test Example 5: herbicidal effect by foliage application, plastic box (Table 20, symbol H); format: in vivo, barnyard grass (Echinochloa crus-galli); settings: amount of applied herbicide 320 g/ha; foliage application after 14-day growth; evaluated three weeks after application
# Summary of the method: as §4
# wild oat [17] = assay: Test Example 5: herbicidal effect by foliage application, plastic box (Table 20, symbol I); format: in vivo, wild oat (Avena fatua); settings: amount of applied herbicide 320 g/ha; foliage application after 14-day growth; evaluated three weeks after application
# Summary of the method: as §4
# blackgrass [18] = assay: Test Example 5: herbicidal effect by foliage application, plastic box (Table 20, symbol J); format: in vivo, blackgrass (Alopecurus myosuroides); settings: amount of applied herbicide 320 g/ha; foliage application after 14-day growth; evaluated three weeks after application
# Summary of the method: as §4
# Italian ryegrass [19] = assay: Test Example 5: herbicidal effect by foliage application, plastic box (Table 20, symbol K); format: in vivo, Italian ryegrass (Lolium multiflorum); settings: amount of applied herbicide 320 g/ha; foliage application after 14-day growth; evaluated three weeks after application
# Summary of the method: as §4
# windgrass [20] = assay: Test Example 5: herbicidal effect by foliage application, plastic box (Table 20, symbol L); format: in vivo, windgrass (Apera spica-venti); settings: amount of applied herbicide 320 g/ha; foliage application after 14-day growth; evaluated three weeks after application
# Summary of the method: as §4
# velvetleaf [21] = assay: Test Example 5: herbicidal effect by foliage application, plastic box (Table 20, symbol M); format: in vivo, velvetleaf (Abutilon theophrasti); settings: amount of applied herbicide 320 g/ha; foliage application after 14-day growth; evaluated three weeks after application
# Summary of the method: as §4
# redroot pigweed [22] = assay: Test Example 5: herbicidal effect by foliage application, plastic box (Table 20, symbol N); format: in vivo, redroot pigweed (Amaranthus retroflexus); settings: amount of applied herbicide 320 g/ha; foliage application after 14-day growth; evaluated three weeks after application
# Summary of the method: as §4
# lambsquarters [23] = assay: Test Example 5: herbicidal effect by foliage application, plastic box (Table 20, symbol O); format: in vivo, lambsquarters (Chenopodium album); settings: amount of applied herbicide 320 g/ha; foliage application after 14-day growth; evaluated three weeks after application
# Summary of the method: as §4
# chickweed [24] = assay: Test Example 5: herbicidal effect by foliage application, plastic box (Table 20, symbol P); format: in vivo, common chickweed (Stellaria media); settings: amount of applied herbicide 320 g/ha; foliage application after 14-day growth; evaluated three weeks after application
# Summary of the method: as §4
# persian speedwell [25] = assay: Test Example 5: herbicidal effect by foliage application, plastic box (Table 20, symbol R); format: in vivo, Persian speedwell (Veronica persica); settings: amount of applied herbicide 320 g/ha; foliage application after 14-day growth; evaluated three weeks after application
# Summary of the method: as §4
smiles,measurement,setting,value
CCCC(=O)Oc1c(C)nn(C)c(=O)c1-c1c(-c2ccc3c(c2)OCO3)sc2cc(F)c(F)cc12 [5-036],"Herbicidal effect, A: late watergrass",late watergrass,2 (Herbicidal rate of 20% or more and less than 40%)
same,"Herbicidal effect, B: Japanese bulrush",Japanese bulrush,2 (Herbicidal rate of 20% or more and less than 40%)
same,"Herbicidal effect, C: oval-leafed pondweed",oval-leafed pondweed,2 (Herbicidal rate of 20% or more and less than 40%)
same,herbicidal effect on barnyard grass (H),barnyard grass [1],2 (Herbicidal rate of 20% or more and less than 40%)
same,herbicidal effect on Chinese sprangletop (D),Chinese sprangletop,0 (Herbicidal rate of 5% or less (almost no effect))
same,herbicidal effect on rice flat sedge (E),rice flat sedge,0 (Herbicidal rate of 5% or less (almost no effect))
same,"F: southern crabgrass, herbicidal effect grade",southern crabgrass [2],0 (Herbicidal rate of 5% or less (almost no effect))
same,"G: green foxtail, herbicidal effect grade",green foxtail [3],1 (Herbicidal rate of 5% or more and less than 20%)
same,"H: barnyard grass, herbicidal effect grade",barnyard grass [4],0 (Herbicidal rate of 5% or less (almost no effect))
same,"I: wild oat, herbicidal effect grade",wild oat [5],0 (Herbicidal rate of 5% or less (almost no effect))
same,"J: blackgrass, herbicidal effect grade",blackgrass [6],0 (Herbicidal rate of 5% or less (almost no effect))
same,"K: Italian ryegrass, herbicidal effect grade",Italian ryegrass [7],0 (Herbicidal rate of 5% or less (almost no effect))
same,"L: windgrass, herbicidal effect grade",windgrass [8],0 (Herbicidal rate of 5% or less (almost no effect))
same,"M: velvetleaf, herbicidal effect grade",velvetleaf [9],0 (Herbicidal rate of 5% or less (almost no effect))
same,"N: redroot pigweed, herbicidal effect grade",redroot pigweed [10],4 (Herbicidal rate of 70% or more and less than 90%)
same,"O: lambsquarters, herbicidal effect grade",lambsquarters [11],3 (Herbicidal rate of 40% or more and less than 70%)
same,"P: chickweed, herbicidal effect grade",chickweed [12],3 (Herbicidal rate of 40% or more and less than 70%)
same,"Q: false cleavers, herbicidal effect grade",false cleavers,0 (Herbicidal rate of 5% or less (almost no effect))
same,"R: persian speedwell, herbicidal effect grade",persian speedwell [13],3 (Herbicidal rate of 40% or more and less than 70%)
same,"Herbicidal effect by foliage application, F: southern crabgrass",southern crabgrass [14],0 (Herbicidal rate of 5% or less (almost no effect))
same,"Herbicidal effect by foliage application, G: green foxtail",green foxtail [15],0 (Herbicidal rate of 5% or less (almost no effect))
same,"Herbicidal effect by foliage application, H: barnyard grass",barnyard grass [16],0 (Herbicidal rate of 5% or less (almost no effect))
same,"Herbicidal effect by foliage application, I: wild oat",wild oat [17],0 (Herbicidal rate of 5% or less (almost no effect))
same,"Herbicidal effect by foliage application, J: blackgrass",blackgrass [18],0 (Herbicidal rate of 5% or less (almost no effect))
same,"Herbicidal effect by foliage application, K: Italian ryegrass",Italian ryegrass [19],0 (Herbicidal rate of 5% or less (almost no effect))
same,"Herbicidal effect by foliage application, L: windgrass",windgrass [20],0 (Herbicidal rate of 5% or less (almost no effect))
same,"Herbicidal effect by foliage application, M: velvetleaf",velvetleaf [21],3 (Herbicidal rate of 40% or more and less than 70%)
same,"Herbicidal effect by foliage application, N: redroot pigweed",redroot pigweed [22],1 (Herbicidal rate of 5% or more and less than 20%)
same,"Herbicidal effect by foliage application, O: lambsquarters",lambsquarters [23],3 (Herbicidal rate of 40% or more and less than 70%)
same,"Herbicidal effect by foliage application, P: chickweed",chickweed [24],5 (Herbicidal rate of 90% or more (almost completely withered))
same,"Herbicidal effect by foliage application, R: persian speedwell",persian speedwell [25],5 (Herbicidal rate of 90% or more (almost completely withered))
